pIC50, pKi: −log10 of the molar value.
Key:
[1] = biological target: T1, Angiotensin-converting enzyme (Oryctolagus cuniculus, UniProt P12822); type: tissue-based, Lung;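 also: enzymatic inhibition of angiotensin-converting enzyme measured with FAPGG as the substrate; in other assays of this panel Not Active means under 50% inhibition at 10 µM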
T1 sequence (P12822 whole entry): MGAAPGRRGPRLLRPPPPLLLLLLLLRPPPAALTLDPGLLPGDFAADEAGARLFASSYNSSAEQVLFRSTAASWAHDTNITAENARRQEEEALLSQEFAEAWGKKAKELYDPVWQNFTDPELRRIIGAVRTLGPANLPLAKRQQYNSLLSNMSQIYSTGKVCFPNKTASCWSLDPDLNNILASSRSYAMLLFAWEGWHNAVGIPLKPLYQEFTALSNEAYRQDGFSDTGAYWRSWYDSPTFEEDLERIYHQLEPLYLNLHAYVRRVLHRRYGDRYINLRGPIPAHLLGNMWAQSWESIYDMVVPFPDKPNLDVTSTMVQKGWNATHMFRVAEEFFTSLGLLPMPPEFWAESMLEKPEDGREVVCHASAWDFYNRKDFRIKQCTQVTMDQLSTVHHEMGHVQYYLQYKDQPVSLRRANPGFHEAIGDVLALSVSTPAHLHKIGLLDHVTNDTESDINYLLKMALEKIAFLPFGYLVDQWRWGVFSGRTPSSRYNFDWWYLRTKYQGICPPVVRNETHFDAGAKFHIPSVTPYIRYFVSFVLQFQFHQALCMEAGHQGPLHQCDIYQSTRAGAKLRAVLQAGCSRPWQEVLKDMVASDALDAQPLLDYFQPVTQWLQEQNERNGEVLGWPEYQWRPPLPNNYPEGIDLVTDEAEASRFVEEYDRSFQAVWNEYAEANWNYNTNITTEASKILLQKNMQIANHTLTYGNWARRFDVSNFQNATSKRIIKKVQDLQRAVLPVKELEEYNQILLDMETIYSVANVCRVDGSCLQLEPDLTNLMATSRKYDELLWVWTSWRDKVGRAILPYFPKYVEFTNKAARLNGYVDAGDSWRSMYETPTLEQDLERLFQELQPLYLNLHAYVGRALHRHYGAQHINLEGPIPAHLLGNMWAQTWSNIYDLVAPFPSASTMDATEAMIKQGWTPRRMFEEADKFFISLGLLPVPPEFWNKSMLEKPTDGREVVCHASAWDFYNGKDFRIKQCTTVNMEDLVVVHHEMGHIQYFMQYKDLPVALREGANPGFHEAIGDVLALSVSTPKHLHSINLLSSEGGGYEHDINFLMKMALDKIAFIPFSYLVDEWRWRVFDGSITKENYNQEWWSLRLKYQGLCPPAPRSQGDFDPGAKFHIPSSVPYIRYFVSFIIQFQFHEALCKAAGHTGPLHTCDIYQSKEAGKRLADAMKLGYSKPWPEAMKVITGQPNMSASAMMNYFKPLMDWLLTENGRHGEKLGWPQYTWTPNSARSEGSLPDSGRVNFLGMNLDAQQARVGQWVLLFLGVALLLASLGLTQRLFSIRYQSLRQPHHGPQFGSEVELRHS

[2] = biological target: T2, 5-hydroxytryptamine receptor 2C (Homo sapiens, UniProt P28335); assay: DRUGMATRIX: Serotonin (5-Hydroxytryptamine) 5-HT2C radioligand binding (ligand: [3H] Mesulergine); type: cell membranes, CHO-K1, Membrane; conditions: Not Active = under 50% inhibition at 10 µM; for pIC50: read-out: IC50
T2 sequence (P28335 whole entry): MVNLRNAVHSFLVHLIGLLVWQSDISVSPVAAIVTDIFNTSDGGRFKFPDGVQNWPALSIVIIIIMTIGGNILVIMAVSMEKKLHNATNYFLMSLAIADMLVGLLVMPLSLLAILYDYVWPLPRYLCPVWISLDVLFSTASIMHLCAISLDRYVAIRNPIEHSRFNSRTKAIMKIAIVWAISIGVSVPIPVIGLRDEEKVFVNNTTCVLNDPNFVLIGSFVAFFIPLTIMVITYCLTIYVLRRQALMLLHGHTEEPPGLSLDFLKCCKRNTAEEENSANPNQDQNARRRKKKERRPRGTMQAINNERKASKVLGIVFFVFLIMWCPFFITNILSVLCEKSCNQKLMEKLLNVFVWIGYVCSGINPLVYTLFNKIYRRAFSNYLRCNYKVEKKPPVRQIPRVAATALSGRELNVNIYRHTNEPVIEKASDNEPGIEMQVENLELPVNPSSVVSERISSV

[3] = biological target: T3, Thromboxane-A synthase (Homo sapiens, UniProt P24557); assay: biochemical; type: tissue-based, Platelet;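 also: enzyme inhibition assay with PGH2 supplied as substrate; in other assays of this panel Not Active means under 50% inhibition at 10 µM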
T3 sequence (P24557 whole entry): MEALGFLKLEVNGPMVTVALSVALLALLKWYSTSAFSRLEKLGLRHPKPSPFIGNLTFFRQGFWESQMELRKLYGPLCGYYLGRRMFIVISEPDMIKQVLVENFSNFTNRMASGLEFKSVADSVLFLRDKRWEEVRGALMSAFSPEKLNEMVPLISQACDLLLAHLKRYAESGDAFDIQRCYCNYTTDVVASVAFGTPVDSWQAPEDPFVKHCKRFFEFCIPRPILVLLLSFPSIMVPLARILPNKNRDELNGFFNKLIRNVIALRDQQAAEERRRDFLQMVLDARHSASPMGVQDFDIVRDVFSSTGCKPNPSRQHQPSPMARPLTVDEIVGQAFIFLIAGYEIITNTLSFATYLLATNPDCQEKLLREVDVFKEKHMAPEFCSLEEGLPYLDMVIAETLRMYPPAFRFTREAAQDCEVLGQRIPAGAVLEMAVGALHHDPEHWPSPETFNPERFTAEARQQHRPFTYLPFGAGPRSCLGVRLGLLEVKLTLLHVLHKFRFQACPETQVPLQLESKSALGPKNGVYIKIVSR

[4] = DRUGMATRIX: Calcium Channel Type L, Dihydropyridine radioligand binding (ligand: [3H] Nitrendipine); type: cell membranes, Rattus norvegicus, Wistar, Cerebral cortex, Membrane; conditions: Not Active = under 50% inhibition at 10 µM
[5] = DRUGMATRIX: beta-Lactamase enzyme inhibition (substrate: Nitrocefin); design: species or system Bacillus cereus; conditions: Not Active = under 50% inhibition at 10 µM
[6] = biological target: T4, Neuropeptide Y receptor type 1 (Homo sapiens, UniProt P25929); type: cell membranes, Membrane; conditions: sk-n-mc; also: in other assays of this panel Not Active means under 50% inhibition at 10 µM
T4 sequence (P25929 whole entry): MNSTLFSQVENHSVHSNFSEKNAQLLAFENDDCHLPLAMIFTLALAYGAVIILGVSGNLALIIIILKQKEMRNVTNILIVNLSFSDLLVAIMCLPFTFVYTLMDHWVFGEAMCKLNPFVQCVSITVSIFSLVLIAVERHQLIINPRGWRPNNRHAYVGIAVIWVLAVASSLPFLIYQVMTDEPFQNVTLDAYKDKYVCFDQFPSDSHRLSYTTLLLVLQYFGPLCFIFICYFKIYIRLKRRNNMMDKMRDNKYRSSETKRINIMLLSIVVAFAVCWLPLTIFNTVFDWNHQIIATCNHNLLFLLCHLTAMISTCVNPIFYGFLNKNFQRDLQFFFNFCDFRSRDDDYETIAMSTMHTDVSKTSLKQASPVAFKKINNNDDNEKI

Molecule	IC50 [1]	IC50 ([2]; cho-k1)	IC50 ([3]; platelet)	IC50 [4]	Ki [4]	IC50 [5]	Ki [5]	IC50 [6]	pIC50 [2]	pKi ([2]; read-out: Ki)	Ki [1]	Ki ([2]; cho-k1)	Ki ([3]; platelet)	Ki [6]	pIC50 ([3]; read-out: IC50)
O=C(Oc1ccccc1C(=O)O)c1ccccc1O [SALSALATE]	Not Active	Not Active	Not Active	Not Active	Not Active	Not Active	Not Active	Not Active							
CNC1(c2ccccc2Cl)CCCCC1=O (stereo not given) [KETAMINE]	Not Active	Not Active	Not Active	Not Active	Not Active	Not Active	Not Active	Not Active							
Fc1ccc(C(c2ccc(F)cc2)N2CCN(C/C=C/c3ccccc3)CC2)cc1 [FLUNARIZINE]	Not Active		Not Active					Not Active	6.17	6.45					
CN[C@H]1CC[C@@H](c2ccc(Cl)c(Cl)c2)c2ccccc21 [SERTRALINE]	Not Active		Not Active					Not Active	5.97						
O=C(Nc1ccc(Br)cc1)c1cc(Br)cc(Br)c1O [TRIBROMSALAN]	Not Active	Not Active	Not Active	Not Active	Not Active	Not Active	Not Active	Not Active							
CC(C)NCC(O)c1ccc(O)c(O)c1 (stereo not given) [ISOPROTERENOL]	Not Active	Not Active	Not Active	Not Active	Not Active	Not Active	Not Active	Not Active							
Cc1cccc(C)c1OCC(C)N (stereo not given) [MEXILETINE]	Not Active	Not Active	Not Active	Not Active	Not Active	Not Active	Not Active	Not Active							
MANGANESE CHLORIDE ANHYDROUS	Not Active	Not Active	Not Active	Not Active	Not Active	Not Active	Not Active	Not Active			Not Active	Not Active	Not Active	Not Active	
CCN(CC)CCNC(=O)c1cc(S(C)(=O)=O)ccc1OC [TIAPRIDE]	Not Active	Not Active	Not Active	Not Active	Not Active	Not Active	Not Active	Not Active							
Clc1ccc(COC(Cn2ccnc2)c2ccc(Cl)cc2Cl)cc1 (stereo not given) [ECONAZOLE]	Not Active							Not Active							7.54
COc1c2occc2cc2ccc(=O)oc12 [METHOXSALEN]	Not Active	Not Active	Not Active	Not Active	Not Active	Not Active	Not Active	Not Active							
